For one assay, the target named is BRD4 (BDII_E352-M457) (Homo sapiens (Human), UniProt O60885). In words: TR-FRET bromodomain binding assay, BRD4 second bromodomain. As to conditions: His-tagged BD2, 30 nM Alexa647 probe. In outline: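 His-tagged BRD4 BD1 or BD2 (8 nM) with Eu-anti-His antibody (1 nM) and Alexa647-labelled BET-inhibitor probe (100 nM BDI, 30 nM BDII); 50 μM−0.85 nM compound, 2% DMSO, phosphate buffer pH 6.0, 1 h at room temperature. TR-FRET IC50 by 4-parameter fit, converted to Ki using probe Kd.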
(Time-resolved FRET reads energy transfer from a long-lived donor to a nearby acceptor.)

A further assay deals with Raji. In words: Proliferation panel assay, Raji. It is filed as cell-based. Conditions: Homo sapiens, 120 h, Burkitt lymphoma, 5 days, read-out: Cellular Proliferation EC50. The procedure: (§1) The impact of compounds of the Examples on cancer cell proliferation was determined using the breast cancer cell line MX-1 (ATCC) in a 3-day proliferation assay. MX-1 cells were maintained in RPMI supplemented with 10% FBS at 37 C.° and an atmosphere of 5% CO2. For compound testing, MX-1 cells were plated in 96-well black bottom plates at a density of 5000 cells/well in 90 μl of culture media and incubated at 37° overnight to allow cell adhesion and spreading. Compound dilution series were prepared in DMSO via a 3-fold serial dilution from 3 mM to 0.1 μM. […]
(§2) Luminescence readings from the Cell Titer Glo assay were normalized to the DMSO treated cells and analyzed using the GraphPad Prism software with sigmoidal curve fitting to obtain EC50s. The minimum significant ratio (MSR) was determined to evaluate assay reproducibility (Eastwood et al., (2006) J Biomol Screen, 11: 253-261). The overall MSR was determined to be 2.1 and a moving MSR (last six run MSR overtime) has been <2.
(§3) The compound of Example 40 was tested for its impact on proliferation of a panel of cancer cell line types (with specific cell lines tested) as set out in (Table 2). […] Cell proliferation data were analyzed as described above in the MX-1 proliferation assay to obtain the EC50 for the compounds reported in Table 2.

The test system of a further assay is EJ-1. Put plainly: Proliferation panel assay, EJ-1. The class given is cell-based. Conditions: EJ1, 120 h; Bladder, EJ-1, 5 days; read-out: Cellular Proliferation EC50. The procedure: as §1, §2, §3
The subject of another assay is D54MG. In words: Proliferation panel assay, D54MG. The class given is cell-based. As to conditions: 120 h, Glioblastoma, 5 days, read-out: Cellular Proliferation EC50. The procedure: as §1, §2, §3
Another assay concerns HepG2. Put plainly: Proliferation panel assay, HepG2. It is filed as cell-based. Conditions: Homo sapiens, 120 h; Hepatocellular, HepG2, 5 days; read-out: Cellular Proliferation EC50. The method, then: as §1, §2, §3
The test system of a further assay is A-375. Put plainly: Proliferation panel assay, A-375. The class given is cell-based. As to conditions: Homo sapiens, 120 h; Melanoma, A-375, 5 days; read-out: Cellular Proliferation EC50. The procedure:
as §1, §2, §3

The subject of another assay is NCI-H929. Put plainly: Proliferation panel assay, NCI-H929. It is filed as cell-based. As to conditions: Homo sapiens, 120 h; Multiple Myeloma, NCI-H929, 5 days; read-out: Cellular Proliferation EC50. The method, then:
as §1, §2, §3

Another assay deals with RPMI-8226. Put plainly: Proliferation panel assay, RPMI-8226. The class given is cell-based. As to conditions: Homo sapiens, 120 h; Multiple Myeloma, RPMI-8226, 5 days; read-out: Cellular Proliferation EC50. The procedure: as §1, §2, §3
The next assay relates to BxPC3FP5. Put plainly: Proliferation panel assay, BxPC3FP5. It is filed as cell-based. As to conditions: 120 h; Pancreas, BxPC3FP5, 5 days; read-out: Cellular Proliferation EC50. The procedure: as §1, §2, §3

Data on one compound can be found in patent publication US9776990B2, “Isoindolone derivatives” (AbbVie Inc., priority 2012, dated 2017).

With `Cc1[nH]c(-c2cc(NS(C)(=O)=O)ccc2Oc2ccccc2)c2c1C(=O)CCC2` [Example 40, N-[3-(3-methyl-4-oxo-4,5,6,7-tetrahydro-2H-isoindol-1-yl)-4-phenoxyphenyl]methanesulfonamide], on BRD4 (BDII_E352-M457), the affinity, expressed as Ki, was 43 nM. Further, the EC50 in the assay on Raji came to 36 nM; in the assay on EJ-1, 594 nM; in the assay on D54MG, 210 nM; in the assay on HepG2, 320 nM; with A-375, 168 nM; in the assay with NCI-H929, 41 nM. The EC50 is 94 nM with RPMI-8226 and 70 nM in the assay on BxPC3FP5.
